Tested on: articular cartilage of the rabbit knee joint (both femoral condyles), ACLT model
Experiment: MRI evaluation of articular cartilage damage in the anterior cruciate ligament transection (ACLT) model using ^17O-labeled water
Assay type: in vivo, Japanese white rabbits
Experimental: An ACLT model was created using 14-week-old male Japanese white rabbits to induce cartilage damage in the knee joint. The rabbits were anesthetized intravenously with pentobarbital (30 mg/kg) and ketamine (50 mg/kg), followed by inhalation anesthesia with isoflurane (1 to 4%) for maintenance anesthesia. The anterior surface of the knee joint on the operative side was shaved, was disinfected with povidone-iodine, and then an analgesic (buprenorphine 0.02 mg/kg) was subcutaneously administered by injection. Skin incision of about 5 cm was placed on the medial side of the patella, and the joint capsule was incised in a similar position. The patella was dislocated laterally, and the knee joint was deeply flexed to expose the anterior cruciate ligament of the femoral intercondylar part, which was separated using a No. 11 scalpel. After washing the inside of the joint with a physiological saline solution, the joint capsule and the skin were sutured using 3-0 nylon thread. Postoperatively, euthanasia was performed if wound infection was observed or in the case of an inability to stand.
It has been reported that in the ACLT model, degeneration of cartilage surface begins at 4 weeks postoperatively and occurs in the entire cartilage layer from 8 weeks postoperatively (Makoto Yoshioka et al. Characterization of a model of osteoarthritis in the rabbit knee. Osteoarthritis and Cartilage, 1996, 4 (2): 87-98), and thus five rabbits were slaughtered and euthanized with pentobarbital (200 mg/kg) each at 4 weeks and 8 weeks postoperatively, and cartilage damage was evaluated by MRI and macroscopically and histologically.
MRI Imaging Using a 3T-MRI apparatus (MAGNETOM Prisma, Siemens), imaging of the rabbit knee joint on the operative side was performed. The affected rabbit limb was disarticulated at the thigh and was fixed at the knee joint extension to avoid the influence of body movement during imaging. A 24G Surflo needle was inserted from the anterior surface of the knee joint through the patellar tendon and was indwelled in the joint. […]

^17O-labeled water
change over time in ^17O concentration in ROI 1 and ROI 2 (damaged cartilage region) (immediately after administration (fourth imaging), calculated from average T2-weighted signal values in each ROI, 4 weeks postoperatively): showed an increase in the ^17O concentration
^17O concentration (^17O map calculated from signal values of T2-weighted image) (representative case 4 weeks postoperatively, about 11 minutes after administration (sixth imaging), 0.5 ml saline containing 20-mol % ^17O-labeled water into knee joint of disarticulated limb): higher in the region where cartilage damage was observed
change over time in ^17O concentration in ROI 3 and ROI 4 (normal cartilage region) (with administration of ^17O-labeled water, calculated from average T2-weighted signal values in each ROI, 4 weeks postoperatively): showed no tendency of an increase in the ^17O concentration
